Data as given in patent publication US10894038B2, “Indolizine derivatives, composition and methods of use” (Shanghai Fochon Pharmaceutical Co., Ltd., priority 2015, dated 2021).
One block for each compound: values may come before it.

Experiments:
URAT1 [1] = biological target: T1, URAT1 (Homo sapiens (Human), UniProt Q96S37); assay: URAT1 in vitro inhibition activity, Method B (14C-uric acid uptake in HEK293-URAT1 cells); assay type: cell-based; details: 5.0 μmol/L 14C-uric acid, 2 min uptake
Experimental: HEK293-URAT1 cell Lines were donated by Japan Fuji Biomedical Research Institute. Negative control cell of HEK293 (MOCK cells) which was transfected with pcDNA3.1 empty vector. HEK293-URAT1 cell lines and MOCK cell lines were cultured in complete growth medium consisting of DMEM supplemented with 10% FBS, penicillin and streptomycin.
Preparation of working solution: Each stock solutions was diluted to different concentrations (6, 20, 60, 200 and 600 μmol/L) with DMSO as 200× working solution, which was then diluted to 2×compound working solution with HBSS (Cl^− free) buffer. Radiolabeled substrate ^14C-Uric acid solution was diluted with HBSS (Cl^− free) buffer to obtain 2× working solution which was mixed with an equal volume of 2× compound working solution to obtain the mixture of radiolabeled substrate and compound working solution.
HER293-URAT1 and MOCK cells were seeded onto 24-well plates at the density of 1.5×10^6 cells per well. The cells were incubated at 37° C., 5% CO2 overnight. After cultured for approximately 2 to 3 days, cells were used for the experiments. The culture medium were removed from the wells, and cells were washed with HBSS (Cl^− free) and incubated in 37° C. HBSS (Cl^− free) for 10 min. HBSS was replaced with 500 μL of the mixture of radiolabeled substrate and compound working solution. The final concentration of ^14C-Uric acid in the assay was 5.0 μmol/L. Plates were incubated at 37° C., 5% CO2 for 2 min, and the reaction was stopped by the addition of pre-chilled HBSS (Cl^− free) by washing three times. 400 μL NaOH ([…]) was added to lyse the cells and the cell lysate was collected to scintillation vials, and 3 ml scintillant (Aquasol-2, PerkinElmer) was added and after mixing completely, the radioactivity was counted by Tri-Carb 2910TR liquid scintillation counter. Each concentration of compounds, positive control and negative control were repeated in two wells (n=2). Inhibition % data were calculated using the formula: Inhibition=[100×(U−U0)/(Uc−U0)]%, and analyzed using Prism5 software.
U0: Average of signals of MOCK cells;
Uc: Average of signals of radiolabeled substrate. The half inhibition concentration of the tested compounds to URAT1 were analyzed using Prism 5 software.
Target sequence in this assay (Q96S37 whole entry, species assumed): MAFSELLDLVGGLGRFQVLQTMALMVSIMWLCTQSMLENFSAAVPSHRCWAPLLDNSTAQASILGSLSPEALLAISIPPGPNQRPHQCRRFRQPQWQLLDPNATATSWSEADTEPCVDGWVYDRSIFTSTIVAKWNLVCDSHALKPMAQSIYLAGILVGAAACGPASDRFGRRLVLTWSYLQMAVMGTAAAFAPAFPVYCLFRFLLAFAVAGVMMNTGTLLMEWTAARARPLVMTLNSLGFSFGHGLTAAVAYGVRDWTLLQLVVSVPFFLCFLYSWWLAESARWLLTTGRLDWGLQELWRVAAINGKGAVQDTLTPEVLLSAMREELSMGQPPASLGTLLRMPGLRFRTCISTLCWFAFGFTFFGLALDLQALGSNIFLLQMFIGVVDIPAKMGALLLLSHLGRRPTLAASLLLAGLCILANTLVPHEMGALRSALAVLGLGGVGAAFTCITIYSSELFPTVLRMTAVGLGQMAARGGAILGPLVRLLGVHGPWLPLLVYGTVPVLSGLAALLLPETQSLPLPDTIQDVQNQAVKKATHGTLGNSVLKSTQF

URAT1 [2] = biological target: T1, URAT1; assay: URAT1 in vitro inhibition activity, Method A (14C-uric acid uptake in HEK293-URAT-4 cells); assay type: cell-based; details: 50 μM 14C-uric acid, 10 min uptake
Experimental: The potency of the compounds of formula (I) as inhibitors of the URAT1 was determined as follow.
Cell Lines were generated in WuXi AppTec (HEK293-URAT-4: Stable cell line of HEK293 which was transfected with pcDNA3.1-URAT (Human SLC22A12 cDNA Clone, Abgent-DC07943). HEK293-PCDNA-5: Negative control cell of HEK293 which was transfected with pcDNA3.1 empty vector.
Cells were seeded onto 24-well plates at the density of 2.0×10^5 cells per well. The cells were incubated at 37° C., 5% CO2 overnight. After approximately 24 hours culture, cells were used for uptake experiments. The culture medium were removed from the wells and the cells were incubated in 0.4 ml/well of Hank's balanced salt solution (HBSS) for 10 min. HBSS was replaced with 0.18 ml/well fresh HBSS. Compounds were 5 folds serial diluted in DMSO, and then 25 folds diluted in HBSS. Compounds diluted with HBSS (10 μl) were added to relevant well of cell plates, and plates were incubated at 37° C., 5% CO2 for 15 min. The final concentration of DMSO in the assay was 0.2%. 10 μl HBSS containing radioactively labeled Urate (^14C-uric acid) was added to each well. The final concentration of ^14C-uric acid in the assay medium was 50 μM. After 10 min, the assay medium was immediately removed. The cells were washed quickly with 0.5 ml pre-chilled HBSS twice. 0.1 M NaOH (0.4 ml) was added to lyse the cells for at least 20 min. The cell lysate was collected to a scintillation vial, and scintillant (4 ml) was added and the radioactivity was counted by a liquid scintillation counter. Inhibiton % data were calculated using the formula
[formula] CPD: Signal from a well containing a test compound HC (high control): Average of signals from HEK293-URAT-4 cells LC (low control): Average of signals from HEK293-PCDNA-5.
Target sequence in this assay (Q96S37 whole entry): as the sequence (Q96S37 whole entry, species assumed) above

[3] = tested on: potassium oxonate-induced hyperuricemia in rats; assay: Effect on potassium oxonate-induced hyperuricemia in rats (serum uric acid); assay type: in vivo, rat; details: male SD rats, 5 mg/kg oral; for serum uric acid levels, time after dosing 0.5 h: 0.5 h after dosing; for serum uric acid levels, time after dosing 1 h: 1 h after dosing; for serum uric acid levels, time after dosing 2 h: 2 h after dosing; for serum uric acid levels, time after dosing 3 h: 3 h after dosing; for serum uric acid levels, time after dosing 4 h: 4 h after dosing
Experimental: Healthy male SD rats, weighing 250±20 g, were used. In the experiment, except for 10 rats as normal control group were orally administered with distilled water, the others were orally administered with yeast extract (20 g/kg, qd×5 days). One hour after last administration, all the rats were intraperitoneal injection with 250 mg/kg potassium oxonate while normal control group was treated with an equal volume of 0.5% CMC-Na (injection volume of 2 ml/kg). After one hour, rats were anesthetized with isoflurane and the serum uric acid was determined by uric acid test strip. All the rats were divided into groups by uric acid. The model control group and experimental groups was given orally administration 0.5% CMC-Na or compounds with a dose of 10 ml/kg-bw. Phosphotungstic acid precipitation method was used to detect serum uric acids in inner canthus blood at 0.5, 1, 2, 3, 4 h after administration, respectively. Substantially, observing the effects of compounds on serum uric acids levels and calculating each of groups' AUC and the inhibition of uric acid increased area by the equation as follows: […]
As shown in the equation, AUC0 indicated the AUC of model control group, AUC1 indicated the AUC of therapy group, AUC2 indicated the AUC of normal control group.

SMILES: N#Cc1ccc(-c2cnccc2SC2(C(=O)O)CCC2)n2ccc(F)c12 [Example 21, 1-((3-(8-cyano-1-fluoroindolizin-5-yl)pyridin-4-yl)thio)cyclobutane-1-carboxylic acid]
IC50 (URAT1 [1]): 85 nM

IC50 (URAT1 [2]): 68 nM
SMILES: CC(C)(Sc1ccncc1-c1ccc(C#N)c2c(Cl)ccn12)C(=O)O [Example 4, 2-((3-(1-chloro-8-cyanoindolizin-5-yl)pyridin-4-yl)thio)-2-methylpropanoic acid]

SMILES: N#Cc1ccc(-c2cnccc2SC2(C(=O)O)CCC2)c2cc(F)cn12 [Example 12, 1-((3-(5-cyano-2-fluoroindolizin-8-yl)pyridin-4-yl)thio)cyclobutane-1-carboxylic acid]
IC50 (URAT1 [1]): 271 nM

IC50 (URAT1 [2]): 66 nM
SMILES: CC(C)(Sc1ccncc1-c1ccc(C#N)c2cccn12)C(=O)O [Example 2, 2-((3-(8-cyanoindolizin-5-yl)pyridin-4-yl)thio)-2-methylpropanoic acid]

SMILES: N#Cc1ccc(-c2cnccc2SC2(C(=O)O)CCC2)c2ccc(Cl)n12 [Example 10, 1-((3-(3-chloro-5-cyanoindolizin-8-yl)pyridin-4-yl)thio)cyclobutane-1-carboxylic acid]
IC50 (URAT1 [1]): 424 nM

SMILES: N#Cc1ccc(-c2cnccc2SC2(C(=O)O)CCC2)n2c(F)ccc12 [Example 20, 1-((3-(8-Cyano-3-fluoroindolizin-5-yl)pyridin-4-yl)thio)cyclobutane-1-carboxylic acid]
IC50 (URAT1 [1]): 34 nM

SMILES: CC(C)(Sc1ccncc1-c1ccc(C#N)n2cccc12)C(=O)O [Example 9, 2-((3-(5-cyanoindolizin-8-yl)pyridin-4-yl)thio)-2-methylpropanoic acid]
serum uric acid levels, time after dosing 0.5 h [3]: 432.1 ± 43.2 µmol/L | serum uric acid levels, time after dosing 1 h [3]: 450.8 ± 40.9 µmol/L | serum uric acid levels, time after dosing 2 h [3]: 385.5 ± 52.2 µmol/L | serum uric acid levels, time after dosing 3 h [3]: 347.1 ± 46.8 µmol/L | serum uric acid levels, time after dosing 4 h [3]: 336.3 ± 59.1 µmol/L

SMILES: N#Cc1ccc(-c2cnccc2SC2(C(=O)O)CCC2)n2c(Cl)ccc12 [Example 23, 1-((3-(3-chloro-8-cyanoindolizin-5-yl)pyridin-4-yl)thio)cyclobutane-1-carboxylic acid]
IC50 (URAT1 [1]): 89 nM

SMILES: N#Cc1ccc(-c2cnccc2SC2(C(=O)O)CCC2)n2cc(Cl)cc12 [Example 13, 1-((3-(2-Chloro-8-cyanoindolizin-5-yl)pyridin-4-yl)thio)cyclobutane-1-carboxylic acid]
serum uric acid levels, time after dosing 0.5 h [3]: 487.2 ± 46.9 µmol/L | serum uric acid levels, time after dosing 1 h [3]: 523.6 ± 50.4 µmol/L | serum uric acid levels, time after dosing 2 h [3]: 422.0 ± 54.1 µmol/L | serum uric acid levels, time after dosing 3 h [3]: 341.4 ± 69.4 µmol/L | serum uric acid levels, time after dosing 4 h [3]: 295.5 ± 47.2 µmol/L | IC50 (URAT1 [1]): 26 nM

SMILES: CS(=O)(=O)c1cc2c(C#N)ccc(-c3cnccc3SC3(C(=O)O)CCC3)n2c1 [Example 19, 1-((3-(8-cyano-2-(methylsulfonyl)indolizin-5-yl)pyridin-4-yl)thio)cyclobutane-1-carboxylic acid]
IC50 (URAT1 [1]): 332 nM

SMILES: N#Cc1ccc(-c2cnccc2SC2(C(=O)O)CCC2)c2cccn12 [Example 8, 1-((3-(5-cyanoindolizin-8-yl)pyridin-4-yl)thio)cyclobutane-1-carboxylic acid]
serum uric acid levels, time after dosing 0.5 h [3]: 449.8 ± 39.8 µmol/L | serum uric acid levels, time after dosing 1 h [3]: 483.9 ± 62.9 µmol/L | serum uric acid levels, time after dosing 2 h [3]: 451.2 ± 58.9 µmol/L | serum uric acid levels, time after dosing 3 h [3]: 393.9 ± 68.6 µmol/L | serum uric acid levels, time after dosing 4 h [3]: 358.3 ± 68.2 µmol/L | IC50 (URAT1 [1]): 55 nM

SMILES: COCC(C)(Sc1ccncc1-c1ccc(C#N)c2cccn12)C(=O)O (stereo not drawn) [Example 31, 2-((3-(8-cyanoindolizin-5-yl)pyridin-4-yl)thio)-3-methoxy-2-methylpropanoic acid]
IC50 (URAT1 [1]): 504 nM

SMILES: CC(C)(Sc1ccncc1-c1ccc(C#N)c2cc(Br)cn12)C(=O)O [Example 16, 2-((3-(2-bromo-8-cyanoindolizin-5-yl)pyridin-4-yl)thio)-2-methylpropanoic acid]
serum uric acid levels, time after dosing 0.5 h [3]: 460.6 ± 46.5 µmol/L | serum uric acid levels, time after dosing 1 h [3]: 491.9 ± 77.4 µmol/L | serum uric acid levels, time after dosing 2 h [3]: 380.6 ± 47.4 µmol/L | serum uric acid levels, time after dosing 3 h [3]: 293.9 ± 42.1 µmol/L | serum uric acid levels, time after dosing 4 h [3]: 264.7 ± 38.8 µmol/L

SMILES: N#Cc1ccc(-c2cnccc2SC2(C(=O)O)CCC2)n2cc(Br)cc12 [Example 15, 1-((3-(2-bromo-8-cyanoindolizin-5-yl)pyridin-4-yl)thio)cyclobutane-1-carboxylic acid]
serum uric acid levels, time after dosing 0.5 h [3]: 476.8 ± 61.7 µmol/L | serum uric acid levels, time after dosing 1 h [3]: 496.3 ± 74.8 µmol/L | serum uric acid levels, time after dosing 2 h [3]: 401.7 ± 52.9 µmol/L | serum uric acid levels, time after dosing 3 h [3]: 331.3 ± 70.5 µmol/L | serum uric acid levels, time after dosing 4 h [3]: 278.0 ± 46.0 µmol/L | IC50 (URAT1 [1]): 29 nM

SMILES: CC(C)(Sc1ccncc1-c1ccc(C#N)c2cc(Cl)cn12)C(=O)O [Example 14, 2-((3-(2-chloro-8-cyanoindolizin-5-yl)pyridin-4-yl)thio)-2-methylpropanoic acid]
serum uric acid levels, time after dosing 0.5 h [3]: 476.3 ± 53.4 µmol/L | serum uric acid levels, time after dosing 1 h [3]: 489.5 ± 83.1 µmol/L | serum uric acid levels, time after dosing 2 h [3]: 385.8 ± 68.2 µmol/L | serum uric acid levels, time after dosing 3 h [3]: 337.2 ± 72.4 µmol/L | serum uric acid levels, time after dosing 4 h [3]: 285.4 ± 47.7 µmol/L | IC50 (URAT1 [1]): 30 nM

SMILES: N#Cc1ccc(-c2cnccc2SC2(C(=O)O)CCC2)c2cc(Cl)cn12 [Example 11, 1-((3-(2-chloro-5-cyanoindolizin-8-yl)pyridin-4-yl)thio)cyclobutane-1-carboxylic acid]
IC50 (URAT1 [1]): 828 nM

IC50 (URAT1 [2]): 282 nM
SMILES: CC(C)(Sc1ccncc1-c1ccc(C#N)c2ccc(Cl)n12)C(=O)O [Example 3, 2-((3-(3-chloro-8-cyanoindolizin-5-yl)pyridin-4-yl)thio)-2-methylpropanoic acid]

SMILES: N#Cc1cc2c(C#N)ccc(-c3cnccc3SC3(C(=O)O)CCC3)n2c1 [Example 17, 1-((3-(2,8-dicyanoindolizin-5-yl)pyridin-4-yl)thio)cyclobutane-1-carboxylic acid]
serum uric acid levels, time after dosing 0.5 h [3]: 454.4 ± 39.8 µmol/L | serum uric acid levels, time after dosing 1 h [3]: 458.1 ± 66.7 µmol/L | serum uric acid levels, time after dosing 2 h [3]: 432.2 ± 67.6 µmol/L | serum uric acid levels, time after dosing 3 h [3]: 403.0 ± 70.0 µmol/L | serum uric acid levels, time after dosing 4 h [3]: 340.1 ± 56.0 µmol/L | IC50 (URAT1 [1]): 45 nM
